Test results as given in US20070293422A1, “Beta-Amyloid Inhibitors and Use Thereof” (priority 2003, published 2007).

How the values were obtained:
Aβ1-42 (SEQ ID NO: 11) = target: T1, Aβ1-42 (SEQ ID NO: 11) (Homo sapiens, UniProt P05067); test: Thioflavine T fluorescence assay of Aβ1-42 amyloid fibril formation (fibrillogenesis assay); type: biochemical
T1 construct: purchased BACHEM H-1368.1000
Protocol: The percentage of formed fibrils after 2 days incubation with 110 μM of Aβ1-42 (SEQ ID NO: 11) at 37° C. is represented versus the concentration of the peptides of the invention (in μM). 100% of formed fibrils correspond to the fibrils formed in presence of Aβ1-42 alone. Triangles represent data for pAntp (SEQ ID NO: 4) and squares represent data for pAntp-BSB1 (SEQ ID NO: 6). The percentage of formed fibrils for peptides of the invention is compared to that obtained for a known beta-sheet breaker, BSB1 of SEQ ID NO: 5 (Lozenges). Data are the result of three independent experiments in duplicate.
Amyloid formation can be quantitatively evaluated by the fluorescence emission of thioflavine T (ThT) bound to amyloid fibrils, as reported by Levine et al., 1993 and also Soto et al., 1995.
In this assay, peptides of the invention were solubilized in water at different concentration in small Eppendorff tubes and lyophilized.
Ab1-42 (a synthetic peptide with the same sequence as the one deposited in the amyloid plaques in Alzheimer's brain, SEQ ID NO: 11) was solubilized at the concentration of 1 mg/ml in 2 mM NaOH. Aliquots were lyophilized (storage −80° C.). Several aliquots of Ab1-42 at a concentration of 0.5 mg/ml ([…]) were prepared in 0.1M Tris, pH 7.4 and incubated for 2 or 5 days at 37° C. in the absence or in the presence of different concentrations of the pre-lyophilized peptides of the invention (ranged from […]). Thioflavin T was purchased from Sigma (T-3516). For example, 120 μg of Ab1-42 and mixed to 1 μl of DMSO and 239 μl of 0.1M Tris, pH 7.4. From this solution, 120 μl are incubated 5 days at 37° C. and 120 μl are used to solubilize the peptide of the invention at the desired concentration and incubated 5 days at 37° C.
At the end of the incubation period, 50 mM Glycine, pH 9.2 and 2 μM ThT are added to the incubated mixture described above in a final volume of […] (850 μl of pure water, 200 μl of 50 mM Glycine, pH 9.2 and 40 μl of Thioflavin T (1 mM in pure water) are added to 60 μl of sample.
Fluorescence is measured at excitation 435 nm and emission 485 nm in a Perkin Elmer, model LS50B fluorescence spectrometer. Measurements are carried out after the signal is stable for at least 1-2 min. The initial value of fluorescence represents the fluorescence obtained with Ab1-42 peptide alone (highest concentration of fibrils) representing 100% of formed fibrils.
The percentage of inhibition of Ab1-42 fibril formation induced by compounds of the invention can be calculated using an analytical method such as described in Soto et al., 1998.

PC12 cells = type: cell-based
Protocol: Amyloid fibrils are cytotoxic, inducing cell death by apoptosis (Levine et al., 1993). The ability of the compounds of the invention in preventing the amyloid formation can be evaluated by measuring the decrease in the amyloid fibrils cytotoxicity in a cell assay. Toxicity was measured by comparing the effects of samples of Ab1-42 (SEQ ID NO: 11) alone or of mixtures of Ab1-42 combined with the peptides of the invention, on the reduction of the redox active dye, 3-(4,5-dimethylthiazol-2-yl)-2,5-diphenyltetrazolium bromide (MTT) by PC12 cells. […] The cells are incubated for 24 h and thereafter the cellular viability was evaluated using the MTT kit (Kit I (MTT), No. 1 465 007 Roche, Mannheim, Germany). Levels of reduced MTT are determined by measuring the difference in absorbance at 595 and 650 nm using a microplate reader and the extend of cellular viability is then deduced Maximum fibril inhibition is obtained at a peptide concentration of 8 mM for the reference compound of SEQ ID NO: 5 in the fibrillogenesis assay described above. […] Cellular viability is then measured for peptides of the invention by adding the fibrillogenesis assay mixtures containing 1 mM of peptide of the invention (concentration where maximum fibril inhibition is obtained for peptides of the invention) to the PC12 cells after a 20-fold dilution. […]

T1 sequence (P05067 672-713): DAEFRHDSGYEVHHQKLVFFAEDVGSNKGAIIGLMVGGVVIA

| Compound | inhibition (Aβ1-42 (SEQ ID NO: 11); 500 μM peptide, Ab1-42 in 0.1M Tris pH 7.4, 37° C., read-out: % Inhibition of amyloid fibrils) | inhibition of the fibrillogenesis process (FIG. 1) (Aβ1-42 (SEQ ID NO: 11); 2 days incubation with 110 μM Aβ1-42 at 37° C.) | IC50 (Aβ1-42 (SEQ ID NO: 11); ThT fluorescence, Ab1-42 0.5 mg/ml, 37° C., read-out: IC50 (inhibition of Ab1-42 fibril formation)) | inhibiting effect on beta-amyloid cellular toxicity compared with BSB1 (PC12 cells; PC12 cells, MTT) | % cell viability (PC12 cells; rat, 24 h, 50 µM) | % Inhibition of amyloid fibrils (Aβ1-42 (SEQ ID NO: 11); 500 μM peptide, Ab1-42 0.5 mg/ml in 0.1M Tris pH 7.4, 37° C.) | peptide concentration above which the % of fibrils reaches a plateau (Aβ1-42 (SEQ ID NO: 11); FIG. 1, 110 μM Aβ1-42, 37° C.) | peptide concentration at which maximum fibril inhibition is obtained (Aβ1-42 (SEQ ID NO: 11); fibrillogenesis assay) |
| --- | --- | --- | --- | --- | --- | --- | --- | --- |
| CC[C@H](C)[C@H](NC(=O)[C@H](CCCCN)NC(=O)[C@@H](NC(=O)[C@H](CCC(N)=O)NC(=O)[C@@H](N)CCCNC(=N)N)[C@@H](C)CC)C(=O)N[C@@H](Cc1c[nH]c2ccccc12)C(=O)N[C@@H](Cc1ccccc1)C(=O)N[C@@H](CCC(N)=O)C(=O)N[C@@H](CC(N)=O)C(=O)N[C@@H](CCCNC(=N)N)C(=O)N[C@@H](CCCNC(=N)N)C(=O)N[C@@H](CCSC)C(=O)N[C@@H](CCCCN)C(=O)N[C@@H](Cc1c[nH]c2ccccc12)C(=O)N[C@@H](CCCCN)C(=O)N[C@@H](CCCCN)C(=O)N[C@@H](CC(C)C)C(=O)N1CCC[C@H]1C(=O)N[C@@H](Cc1ccccc1)C(=O)N[C@@H](Cc1ccccc1)C(=O)N[C@@H](CC(=O)O)C(N)=O [SEQ ID NO: 6] | 57% | high degree of inhibition | ~98 µM | higher inhibiting effect on the beta-amyloid cellular toxicity than the beta-sheet breaker itself | 166% |  |  |  |
| SEQ ID NO: 5: known beta-sheet breaker BSB1 (WO 01/34631), reference peptide (Ac-LPFFD-NH2) [reference compound] |  |  |  |  |  | 15% | does not reach a plateau limit | 8 mM |
